Experimental findings from patent US10124033B2, “Peptides and methods of use” (BAXALTA INCORPORATED, priority 2014, dated 2018) are described below.

The target in assay [1] is T1, Protein S/APC cofactor activity (Homo sapiens, UniProt P07225).
T1 construct: host or cells: plasma
T1 sequence (P07225 41-676 limits assumed): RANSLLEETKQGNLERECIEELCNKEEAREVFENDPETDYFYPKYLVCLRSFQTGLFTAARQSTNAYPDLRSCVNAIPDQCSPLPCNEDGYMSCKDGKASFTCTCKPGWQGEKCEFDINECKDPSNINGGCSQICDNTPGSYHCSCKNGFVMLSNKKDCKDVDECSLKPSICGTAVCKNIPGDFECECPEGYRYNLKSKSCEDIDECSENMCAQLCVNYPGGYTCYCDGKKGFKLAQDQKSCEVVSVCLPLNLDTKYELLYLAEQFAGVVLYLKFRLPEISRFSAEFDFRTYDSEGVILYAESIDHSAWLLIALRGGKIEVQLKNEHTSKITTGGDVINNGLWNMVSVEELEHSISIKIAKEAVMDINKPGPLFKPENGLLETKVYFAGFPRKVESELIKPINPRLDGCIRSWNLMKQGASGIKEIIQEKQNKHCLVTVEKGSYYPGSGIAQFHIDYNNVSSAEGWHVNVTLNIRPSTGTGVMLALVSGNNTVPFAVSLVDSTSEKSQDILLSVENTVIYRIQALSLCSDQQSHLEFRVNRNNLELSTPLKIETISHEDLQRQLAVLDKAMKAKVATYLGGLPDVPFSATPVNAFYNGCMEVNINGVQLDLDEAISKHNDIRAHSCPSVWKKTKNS
The assay can be described thus: CAT assay: Protein S/APC-dependent thrombin generation in FVIII-inhibited plasma. The settings on record: Protein S-depleted plasma supplemented with APC and Protein S, FVIII-inhibited. It counts as biochemical. The procedure:
Peptides also were tested for improvement of Protein S/APC-dependent thrombin generation in hemophilic plasma using a CAT assay. Protein S enhances the anticoagulation of APC in plasma. The CAT assay quantifies the effect of Protein S on APC-mediated thrombin generation initiated via the extrinsic coagulation pathway (Nicolaes, Blood Coagul. Fibrinolysis, 8:28 (1997)). APC (35 nM) and Protein S (25 nM) was added to Protein 5-depleted plasma, and plasma samples were incubated with high titer heat inactivated anti-human FVIII plasma raised in goat (4490 BU/ml; Baxter BioScience, Vienna, Austria; 50 BU/ml final plasma concentration). Thrombin formation in plasma was followed by calibrated automated thrombography (CAT) in a Fluoroskan Ascent® reader (Thermo Labsystems, Helsinki, Finland) and quantified via the thrombin peak-height. Thrombin generation was determined at high tissue factor (TF) concentration in the absence and in the presence of APC at a concentration that reduces the peak height to ˜20%. The inhibitory effect of peptides described herein on the APC cofactor activity of Protein S (PS) in plasma was measured in FVIII-inhibited pooled normal plasma supplemented with APC. Complete (100%) Protein S/APC inhibition is the height of the thrombin peak without addition of APC. Lack of (0%) PS/APC inhibition correlates to the thrombin peak-height value with a certain amount of APC. Peptides were ranked by their normalized values in comparison to the mean of wild-type controls including SD at two defined peptide concentrations (EC50 and EC90).
Exemplary conditions for the CAT assay are as follows. Protein S-depleted plasma was supplemented with 35 nM APC and […]. Stock APC was diluted with 10 pM TF and 15 μM PL. Lyophilized peptides were dissolved in 100% DMSO to a 5 mM stock concentration and further diluted with HNABSA5-buffer+0.1% Tween80. […] In a 96 well Immulon 2HB (transparent), U-bottom (ThermoElectron) plate was mixed 80 μl plasma (+CTI+Z994-5), 10 μl peptide dilution, and 10 μl APC-TF-PL-MIX or Calibrator. Thrombin generation was initiated by dispensing 20 μL of FluCa reagent containing fluorogenic substrate and HEPES-buffered CaCl2 (100 mM) into each well. Fluorescence intensity was recorded at 37° C. using the Fluoroskan Ascent® reader (filters 390 nm excitation and 460 nm emission). The parameters of the resulting thrombin generation curves were calculated using the Thrombinoscope™ software (Thrombinoscope) and thrombin calibrator to correct for inner filter and substrate consumption effects (Hemker, Pathophysiol Haemost Thromb, 33: 415 (2003)).

Assay [2] addresses T2, Protein S (Homo sapiens, UniProt P07225).
T2 sequence (P07225 41-676 limits assumed): T1 sequence (P07225 41-676 limits assumed)
The assay can be described thus: competition (IC50) ELISA with biotinylated tracer peptide JBS0684. To be noted: competition ELISA, tracer JBS0684; re-synthesized peptides. It counts as binding. The procedure:
The new peptide candidates were synthesized (purity >60%) and screened for affinity in a competitive binding assay (ELISA IC50) and activity in a thrombin generation assay (CAT). The competition (IC50) ELISA was performed using biotinylated tracer peptide JBS0684 to compete for Protein S-binding with candidate peptides. Peptides that compete with the tracer bind the same region of Protein S as the tracer (and each other). Ninety-six well PolySorp plates (Nunc) were coated with 3 μg/mL Protein S in coating buffer (15 mM Na2CO3, 35 mM NaHCO3, pH 9.6) over night. Plates were washed three times with wash buffer (HNaT: 175 mM NaCl, 25 mM HEPES, 5 mM CaCl2, 0.1% Tween 80, pH 7.35), and blocked with 100 μl 2% yeast extract in HNaT for at least 1 hour. Plates were then washed three times with HNaT. JBS0684 was applied at a concentration corresponding to the EC90 value determined in the binding ELISA. A competitor stock solution of peptide (10 mM) was diluted 1/33.3 in HNaT without HSA, and a serial ⅓ dilution was prepared with HNaT with 3% DMSO. The dilution was further diluted with the biotinylated tracer peptide in a ratio of 1:6 (20 μl competitor dilution and 100 μl tracer peptide). The mixture of competitor and tracer peptide was applied to the Protein S-coated microtiter plate and incubated for 1.5 hours. The plates were washed three times with HNaT. Peptide-Protein S binding was detected by applying HRP-conjugated streptavidin to the microtiter plate, incubating the mixture for one hour, washing the plate three times with HNaT, applying TMB (3,3′5,5′-Tetramethylbenzidin), and detecting the subsequent chromogenic conversion of TMB by HRP. IC50 measurements of peptides are provided herein (see, e.g., Table 3).
In general terms: An ELISA detects its analyte on a solid surface through an enzyme-linked reagent.

The target in assay [3] is T2, Protein S. The assay is described as follows: LANCE IC50 assay (competition TR-FRET) with tracer JBS0684. It counts as binding. As to the method:
Peptides also were characterized in a competition, homogenous europium-based TR-FRET assay (LANCE IC50 assay) using JBS0684 as a tracer (i.e., competitor for Protein S binding). The following reagents were mixed together in a Perkin-Elmer ProxiPlate MTP well (indicated concentration is the final concentration): Eu-labeled Protein S (10 nM), Ulight™-labeled Streptavidin (100 nM), tracer (JBS0684 (300 nM)), and peptide (titrated in three-fold dilution steps). The final volume was 50 μl/well. The reaction mix was incubated for 1 hour at room temperature, then the fluorescence emission at 665 nm was recorded on a multi-mode reader (SpectraMax® M5, Molecular Devices) using the following instrument settings: Ex 340 nm, Em 665 nm, delay 50 μsec, integration 100 μsec, reads 100. Binding of tracer peptides to soluble europium-labeled Protein S was detected by Streptavidin labeled with an acceptor fluorophor (ULight™). Inhibition of tracer-binding to Protein S by a non-biotinylated peptide results in a decrease of TR-FRET between the Eu-labeled Protein S and ULight™-labeled Streptavidin. IC50 values were obtained from peptide titration curves at constant tracer concentration using non-linear regression of the fluorescence emission signals at 665 nm.

Setting [4] is: Table 4, multiple substitutions in JBS2572, read-out: LANCE IC50.

Non-standard residues stand in square brackets, D forms with d. Residues, ends and D or L forms follow the SMILES beside them. Tle = CC(C)(C)[C@H](N)C(=O)O

By EC50 is commonly meant the concentration that produces a half-maximal response. The low end stands for an effect from little substance, the high end for a need for much substance. The molecule `CC(=O)N[C@H](C(=O)NCC(=O)N[C@@H](Cc1c[nH]cn1)C(=O)N[C@H](C(=O)N[C@@H](CO)C(=O)N[C@@H](C)C(=O)NCC(=O)N[C@@H](Cc1c[nH]c2ccccc12)C(=O)N[C@@H](Cc1ccc(O)cc1)C(=O)N[C@@H](CC(=O)O)C(=O)N[C@@H](Cc1ccc(O)cc1)C(=O)N[C@@H](CC(N)=O)C(=O)N[C@@H](Cc1ccccc1)C(=O)N[C@@H](CC(=O)O)C(=O)N[C@@H](Cc1c[nH]cn1)C(=O)N[C@@H](Cc1ccc(O)cc1)C(=O)N[C@@H](CCCNC(=N)N)C(=O)N[C@@H](CCC(=O)O)C(=O)N[C@@H](Cc1ccccc1)C(=O)N[C@H](C(N)=O)[C@@H](C)O)C(C)C)[C@@H](C)O` [JBS2512] (Ac-TGHVSAGWYDYNFDHYREFT-NH2) registered an EC50 in assay [1] of 24 nM.
One may read the IC50 as the concentration needed to halve the response being measured. `CC(=O)N[C@H](C(=O)NCC(=O)N[C@@H](Cc1c[nH]cn1)C(=O)N[C@H](C(=O)N[C@@H](CO)C(=O)N[C@@H](C)C(=O)NCC(=O)N[C@@H](Cc1c[nH]c2ccccc12)C(=O)N[C@@H](Cc1ccc(O)cc1)C(=O)N[C@@H](CC(=O)O)C(=O)N[C@@H](Cc1ccc(O)cc1)C(=O)N[C@@H](CC(N)=O)C(=O)N[C@@H](C)C(=O)N[C@@H](CC(=O)O)C(=O)N[C@@H](Cc1c[nH]cn1)C(=O)N[C@@H](Cc1ccc(O)cc1)C(=O)N[C@@H](CCCNC(=N)N)C(=O)N[C@@H](CCC(=O)O)C(=O)N[C@@H](Cc1ccccc1)C(=O)N[C@H](C(N)=O)[C@@H](C)O)C(C)C)[C@@H](C)O` [JBS2526] (Ac-TGHVSAGWYDYNADHYREFT-NH2): the IC50 in assay [2] was found to be 3.6 nM. The same molecule yielded an EC50 in assay [1] of 19 nM.
As to `CC(=O)N[C@H](C(=O)NCC(=O)N[C@@H](CC(C)C)C(=O)N[C@H](C(=O)N[C@@H](CCC(=O)O)C(=O)N[C@@H](C)C(=O)NCC(=O)N[C@@H](Cc1c[nH]c2ccccc12)C(=O)N[C@@H](Cc1ccc(O)cc1)C(=O)N[C@@H](CC(=O)O)C(=O)N[C@@H](Cc1ccc(O)cc1)C(=O)N[C@@H](CC(N)=O)C(=O)N[C@@H](Cc1ccccc1)C(=O)N[C@@H](CC(=O)O)C(=O)N[C@H](C(=O)N[C@@H](Cc1ccc(O)cc1)C(=O)N[C@@H](CCCNC(=N)N)C(=O)N[C@@H](CCC(=O)O)C(=O)N[C@@H](Cc1ccccc1)C(=O)N[C@H](C(N)=O)[C@@H](C)O)C(C)C)C(C)C)[C@@H](C)O` [JBS3193] (Ac-TGLVEAGWYDYNFDVYREFT-NH2), the IC50 in assay [3] (setting [4]) was found to be 2.5 nM.
Consider `CC(=O)N[C@H](C(=O)NCC(=O)N[C@@H](CC(C)C)C(=O)N[C@H](C(=O)N[C@@H](CO)C(=O)N[C@@H](C)C(=O)NCC(=O)N[C@@H](Cc1c[nH]c2ccccc12)C(=O)N[C@@H](Cc1ccc(O)cc1)C(=O)N[C@@H](CC(=O)O)C(=O)N[C@@H](Cc1ccc(O)cc1)C(=O)N[C@@H](CC(N)=O)C(=O)N[C@@H](CC(N)=O)C(=O)N[C@@H](CC(=O)O)C(=O)N[C@H](C(=O)N[C@@H](Cc1ccc(O)cc1)C(=O)N[C@@H](CCCNC(=N)N)C(=O)N[C@@H](CCC(=O)O)C(=O)N[C@@H](Cc1ccccc1)C(=O)N[C@H](C(N)=O)[C@@H](C)O)[C@@H](C)O)C(C)C)[C@@H](C)O` [JBS3194] (Ac-TGLVSAGWYDYNNDTYREFT-NH2), for which, in assay [3], the IC50 is 1.8 nM.
Consider `CC(=O)N[C@H](C(=O)NCC(=O)N[C@@H](CC(C)C)C(=O)N[C@H](C(=O)N[C@@H](CO)C(=O)N[C@@H](C)C(=O)NCC(=O)N[C@@H](Cc1c[nH]c2ccccc12)C(=O)N[C@@H](Cc1ccc(O)cc1)C(=O)N[C@@H](CC(=O)O)C(=O)N[C@@H](Cc1ccc(O)cc1)C(=O)N[C@@H](CC(N)=O)C(=O)N[C@@H](CC(N)=O)C(=O)N[C@@H](CC(=O)O)C(=O)N[C@H](C(=O)N[C@@H](Cc1ccc(O)cc1)C(=O)N[C@@H](CCCNC(=N)N)C(=O)N[C@@H](CCC(=O)O)C(=O)N[C@@H](Cc1ccccc1)C(=O)N[C@H](C(N)=O)[C@@H](C)O)C(C)C)C(C)C)[C@@H](C)O` [JBS3195] (Ac-TGLVSAGWYDYNNDVYREFT-NH2), for which the IC50 in assay [3] (setting [4]) was found to be 2 nM.
For `CSCC[C@H](NC(=O)[C@H](Cc1ccc(O)cc1)NC(=O)[C@H](Cc1c[nH]cn1)NC(=O)[C@H](CC(=O)O)NC(=O)[C@H](CC(N)=O)NC(=O)[C@H](CC(N)=O)NC(=O)[C@H](Cc1ccc(O)cc1)NC(=O)[C@H](CC(=O)O)NC(=O)[C@H](Cc1ccc(O)cc1)NC(=O)[C@H](Cc1c[nH]c2ccccc12)NC(=O)CNC(=O)[C@H](C)NC(=O)[C@H](CO)NC(=O)[C@@H](NC(=O)[C@H](CC(C)C)NC(=O)CNC(=O)[C@@H](NC(C)=O)[C@@H](C)O)C(C)C)C(=O)N[C@@H](CCC(=O)O)C(=O)N[C@@H](Cc1ccccc1)C(=O)N[C@H](C(N)=O)[C@@H](C)O` [JBS3198] (Ac-TGLVSAGWYDYNNDHYMEFT-NH2), in assay [3] (setting [4]), the IC50 was 2.5 nM.
On to `CC(=O)N[C@H](C(=O)NCC(=O)N[C@@H](CC(C)C)C(=O)N[C@H](C(=O)N[C@@H](CO)C(=O)N[C@@H](C)C(=O)NCC(=O)N[C@@H](Cc1c[nH]c2ccccc12)C(=O)N[C@@H](Cc1ccc(O)cc1)C(=O)N[C@@H](CC(=O)O)C(=O)N[C@@H](Cc1ccc(O)cc1)C(=O)N[C@@H](CC(N)=O)C(=O)N[C@@H](Cc1ccccc1)C(=O)N[C@@H](CC(=O)O)C(=O)N[C@H](C(=O)N[C@@H](Cc1ccc(O)cc1)C(=O)N[C@@H](CCCNC(=N)N)C(=O)N[C@@H](CCC(=O)O)C(=O)N[C@@H](Cc1ccccc1)C(=O)N[C@H](C(N)=O)[C@@H](C)O)[C@@H](C)O)C(C)(C)C)[C@@H](C)O` [JBS3202, Ac-TGL-Tle-SAGWYDYNFDTYREFT-NH2] (Ac-TGL[Tle]SAGWYDYNFDTYREFT-NH2), for which the IC50 in assay [3] (setting [4]) is 1.6 nM.
